Assay results reported in patent US20220098237A1, “COMPOUND, SYNTHESIS INTERMEDIATE, USE, PHARMACEUTICAL COMPOSITION AND NEUROMODULATORY THERAPEUTIC METHOD” (Remer Consultores Assessoria Empresarial Ltda, priority 2017, published 2022).
“And” between values parts separate entries of the source, which are not always exact repeats. Equal entries are not always repeated. “Also recorded” adds a separate entry of the source. Ends that are not written are not given here.

Assays:
human CB1 receptor = molecular target: T1, human CB1 receptor (Homo sapiens, UniProt P21554); experiment: In vitro radioligand binding, [3H] CP 55940, recombinant CHO cells; conditions: reference radioligand agonist
T1 construct: expressed in transfected cells; host or cells: CHO cells
T1 sequence (P21554 whole entry): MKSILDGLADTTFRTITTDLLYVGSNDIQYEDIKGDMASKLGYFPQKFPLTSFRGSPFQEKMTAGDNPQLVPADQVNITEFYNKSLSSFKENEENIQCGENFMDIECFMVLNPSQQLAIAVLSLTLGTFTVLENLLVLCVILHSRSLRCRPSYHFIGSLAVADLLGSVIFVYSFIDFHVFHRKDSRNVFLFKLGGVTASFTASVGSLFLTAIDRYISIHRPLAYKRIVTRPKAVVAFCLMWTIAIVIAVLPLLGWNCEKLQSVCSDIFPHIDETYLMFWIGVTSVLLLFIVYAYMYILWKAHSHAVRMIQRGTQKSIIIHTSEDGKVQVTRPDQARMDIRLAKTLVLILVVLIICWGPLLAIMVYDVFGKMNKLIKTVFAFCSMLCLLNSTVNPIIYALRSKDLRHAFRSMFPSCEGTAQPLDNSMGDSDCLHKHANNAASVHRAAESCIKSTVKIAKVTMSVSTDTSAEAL
Protocol: In vitro binding assays were performed using recombinant CHO cells expressing the human CB1 receptor and the [3H]
Results are expressed as the percentage of binding of the specific control according to formula: […]
And the percentual inhibition of binding of specific control obtained in the presence of the compound of the invention is:
IC50 values (concentration that causes half of maximal inhibition of specific control binding) and Hill (nH) coefficients were determined by nonlinear regression of the competition curves generated with the mean values of the replicates using the Hill equation:
Where Y=specific binding, A=asymptotic left of curve, D=asymptotic right of curve, C=compound concentration, C50=IC50 and nH=curve coefficient/slope factor. This analysis was performed using the Hill software validated by comparison with data generated by Sigmaplot 4.0 software. Inhibition constants (Ki) were calculated using the equation of Chen Prusoff:
Where L=concentration of the radioligand in the assay; KD=affinity of the radioligand for the receptor. A graph is used to determine the KD.

[1] = Stability tests under extreme conditions (freezing 24 hours; heating at 100° C. for 10 minutes), HPLC; type: physicochemical
Description: In the vertical axis the area of the HPLC peak is shown. […] Statistical significance data are also shown, the asterisks indicating: (*) P<0.05 vs Control (***) P<0.005 vs Control; (****) P<0.0001 vs Control.

CB1 receptor = experiment: Screening with anti-CB1 antibodies sensitive to activation/conformational changes, ELISA on Striatum membranes; type: binding; conditions: ligands 1 μM, Assay 1-5
Protocol: Antibodies sensitive to CB1 receptor activation were generated and characterized by their specificities. For screening compounds, Striatum membranes (5 μg per well) were plated on NUNC-Immuno 96-well plates (Nalge-Nunc) and dried at room temperature. Membranes were washed with PBS (phosphate buffered saline) and incubated with or without different ligands (1 μM) and the extent of receptor recognition by the antibodies was measured by ELISA. The results of the tests are shown in Table 5, which indicates the % binding to the CB1 receptor in relation to control: […]

pilocarpine model = experiment: Pilocarpine model, oral pre-treatment (salivation, first signal, seizure, death/survival); type: in vivo, Mus musculus; set-up: time of occurrence of the first seizure: unit not given here; conditions: for time of occurrence of the first salivation: Table 1; for time of occurrence of the first salivation / time of occurrence of the first signal / time of occurrence of the first seizure / time of death occurrence: oral, 10 minutes prior to pilocarpine 320 mg/kg i.p., individual animals; for time of occurrence of the first signal: Table 2; for time of occurrence of the first seizure: Table 3; for time of death occurrence: Table 4; for neuroprotection, survival/death profile after 24 hours: FIG. 7, 600 μg/kg, n=5 per group, compared with SEQ ID No. 1
Protocol: In some examples, the neuromodulatory/neuroprotective/anticonvulsive effects of the composition of the invention have been evaluated in vivo by oral administration to animals. The pharmaceutical composition of the invention was administered to mammals (Mus musculus or mouse) with an oral dose of treatment with different embodiments of the compound of the invention, compared to other compounds or to saline control. In these experiments, the test compounds were administered orally 10 minutes prior to (intraperitoneal) administration of pilocarpine. Pilocarpine hydrochloride (320 mg/kg, Merck), dissolved in 0.9% sterile saline, was given intraperitoneally for induction of SE (status epileticus) (Turski et al., 1983). In the Turski model, the neurotoxic effects begin about 15-25 minutes after the injection of Pilo, with the occurrence of motor and limbic seizures, the animals evolving to a state of continuous (clonic) seizures that characterize SE Sanabria and Cavalheiro, 2000).
In this embodiment, the anticonvulsive effect of the composition of the invention prepared according to Example 2 was evaluated by prior administration of the inventive composition and subsequent administration of pilocarpine to animals. FIG. 4 presents the results of the pilocarpine model, indicating the time for the first salivation with the administration of control, cannabidiol (30 mg/kg), the compound of the invention R1-N-AA1-K-AA2-R2, in which embodiment is the tetrapeptide of SEQ ID No. 1 (500 μg/kg).
In this embodiment, the neuromodulatory effect of the composition of the invention prepared according to Example 2 was evaluated by prior administration of the inventive composition and subsequent administration of pilocarpine to animals. Other test compounds were also evaluated as described below. Administration of pilocarpine leads to severe brain injury, neurotoxicity and usually culminates in the death of the animals. This substance was used in the experiments described below but its harmful neuronal/encephalic effects were inhibited by the prior administration of the composition of the present invention: the vast majority of the animals subjected to these experiments had no symptoms related to brain lesions and survived without apparent damage, in contrast to groups of animals treated with other known substances.
The composition of the invention was prepared according to Example 2 with due concentration correction, for comparison of the effects of SEQ ID No. 1, SEQ ID No. 7 and NFK, such compounds having been previously administered to the animal groups.
In this embodiment, the anticonvulsant effect of different embodiments of the compound of the invention with the structure represented by SEQ ID No. 1, SEQ ID No. 7, NFK, FKF, FKL, as well as the NF, FK, KF and KL dipeptides were evaluated in the pilocarpine model.

pain threshold = experiment: Pain threshold model, pressure apparatus on right paw; type: in vivo, rats; conditions: oral, 0.5 to 0.25 mg/kg, individual animals
Protocol: The compounds of the present invention have also been tested as analgesics or neuropathic pain modulators. To that end, the compounds PVNFKF, PVNFK, VNFKF, SEQ ID No. 1 were tested in the pain threshold model. The pain threshold was measured using a pressure apparatus (Ugo Basile, Italy), essentially as described (Randall and Selitto, 1957). Briefly, a force of increasing magnitude (16 g/s) was applied to the back of the right paw of rats. When animals react by kicking, the force in grams required to induce this response is the threshold of pain. Antinoniceptive activity was expressed as the increase in pain threshold compared to control animals.
The compounds of the invention were administered orally to the animals at doses of 0.5 to 0.25 mg/kg and saline was used as a control.

[2] = molecular target: CB1 receptor in Striatum membranes; experiment: ELISA on Striatum membranes: CB1 recognition by conformation-sensitive anti-CB1 antibody after incubation with 1 µM ligand; assay 2
Sequence of CB1 receptor in Striatum membranes (P21554 whole entry): as above

[3] = molecular target: CB1 receptor in Striatum membranes; experiment: ELISA on Striatum membranes: CB1 recognition by conformation-sensitive anti-CB1 antibody after incubation with 1 µM ligand; assay 5
[4] = molecular target: CB1 receptor in Striatum membranes; experiment: ELISA on Striatum membranes: CB1 recognition by conformation-sensitive anti-CB1 antibody after incubation with 1 µM ligand; assay 3
[5] = molecular target: CB1 receptor in Striatum membranes; experiment: ELISA on Striatum membranes: CB1 recognition by conformation-sensitive anti-CB1 antibody after incubation with 1 µM ligand; assay 4
[6] = molecular target: CB1 receptor in Striatum membranes; experiment: ELISA on Striatum membranes: CB1 recognition by conformation-sensitive anti-CB1 antibody after incubation with 1 µM ligand; assay 1
[7] = molecular target: T2, recombinant human CB2 cannabinoid receptor (human, UniProt P34972 1-360); experiment: [3H]WIN 55212-2 radioligand displacement on CHO cells expressing human CB2
T2 construct: whole, on cells; also called human CB2 receptor
T2 sequence (P34972 whole entry): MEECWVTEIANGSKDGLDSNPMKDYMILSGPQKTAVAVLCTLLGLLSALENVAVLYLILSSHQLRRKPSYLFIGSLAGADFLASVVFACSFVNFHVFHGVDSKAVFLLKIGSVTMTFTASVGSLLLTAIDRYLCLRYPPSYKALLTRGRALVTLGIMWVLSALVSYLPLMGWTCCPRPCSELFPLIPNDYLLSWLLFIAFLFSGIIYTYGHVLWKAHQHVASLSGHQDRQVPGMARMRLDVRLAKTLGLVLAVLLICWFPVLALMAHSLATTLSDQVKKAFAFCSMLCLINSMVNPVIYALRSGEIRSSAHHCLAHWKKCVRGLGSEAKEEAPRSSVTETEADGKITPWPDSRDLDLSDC
Protocol: In vitro binding assays were performed using recombinant CHO cells expressing human CB2 receptor and [3H]

[8] = heating at 100° C. for 10 minutes

CCCCCCC(C)(C)c1ccc([C@@H]2C[C@H](O)CC[C@H]2CCCO)c(O)c1 [CP 55940, reference compound]
nH (human CB1 receptor): 1

CC(C)C[C@H](NC(=O)[C@H](Cc1ccccc1)NC(=O)[C@H](CCCCN)NC(=O)[C@H](Cc1ccccc1)NC(=O)[C@H](CC(N)=O)NC(=O)[C@@H](NC(=O)[C@@H]1CCCN1)C(C)C)C(=O)N[C@@H](CO)C(=O)N[C@@H](Cc1cnc[nH]1)C(=O)O [Hp, hemopressin]
area of the HPLC peak, control ([1]; control sample, n=2): 140
area of the HPLC peak after freezing ([1]; freezing for 24 h): 97
part lost or degraded by freezing ([1]; freezing for 24 h): approximately 31%
area of the HPLC peak after heating [1, 8]: 50
part lost or degraded upon heating [1, 8]: approximately 64.3%
% binding to the CB1 receptor in relation to control (CB1 receptor): 91.33% and 92.74% and 97.05% and 90.23% and 73.49%

Cc1c(C(=O)c2cccc3ccccc23)c2cccc3c2n1[C@H](CN1CCOCC1)CO3 [WIN 55212-2]
% binding to the CB1 receptor in relation to control (CB1 receptor; listed as Win): 111.483% and 117.95% and 125.56% and 127.52% and 122.49%

C=C(C)[C@@H]1CCC(C)=C[C@H]1c1c(O)cc(CCCCC)cc1O [cannabidiol, reference compound]
time for first salivation vs control (significance) (pilocarpine model; FIG. 4, cannabidiol 30 mg/kg, SEQ ID No. 1 500 μg/kg): does not present statistical significance
prostration and nasal bleeding (pilocarpine model; SEQ ID No. 1 500 μg/kg, cannabidiol 30 mg/kg): both prostration and the nasal bleeding was observed; also recorded: both prostration and bleeding were observed

FKF
time of occurrence of the first salivation (pilocarpine model): 0.38 min and 0.95 min and 0.50 min and 1.50 min
time of occurrence of the first signal (pilocarpine model): 5.3 min and 6.35 min and 8.33 min and 8.82 min
time of occurrence of the first seizure (pilocarpine model): 10.25 and 6.28 and 8.92 and 3.83 and 7.82
time of death occurrence (pilocarpine model): 12.9 min and 13.17 min and 20.67 min and 16.67 min and 13.5 min

FKL
time of occurrence of the first salivation (pilocarpine model): 0.333 min and 1.6 min and 0.2 min and 0.633 min and 1.5 min
time of occurrence of the first signal (pilocarpine model): 9.17 min and 5.67 min and 9.5 min and 8.5 min and 4.5 min
time of occurrence of the first seizure (pilocarpine model): 5.3 and 6.35 and 4.83 and 8.82
time of death occurrence (pilocarpine model): 14.53 min and 11.7 min and 10.92 min

NFK
neuroprotection, survival/death profile after 24 hours (pilocarpine model): equivalent to those obtained with SEQ ID No. 1
occurrence of first salivation (in words) (pilocarpine model; FIG. 8): inhibited or delayed the occurrence of first salivation
time of occurrence of the first salivation (pilocarpine model): 1.38 min and 0.75 min and 0.42 min and 0.98 min
time of occurrence of the first signal (pilocarpine model): 6.28 min and 8.92 min and 4.83 min and 7.82 min
time of occurrence of the first seizure (pilocarpine model): 13.38 and 11.33 and 9.67 and 8 and 9.93
time of death occurrence (pilocarpine model): 16.83 min and 13.53 min and 11.7 min and 10.92 min and 10.87 min

PVNFK [reference compound]
pain threshold, force (pain threshold; After 3 h): 55 grams (2×) and 45 grams and 40 grams (2×) and 60 grams
pain threshold, force (pain threshold; Immediate): 70 grams and 75 grams (3×) and 65 grams and 60 grams

PVNFKF [reference compound]
pain threshold, force (pain threshold; After 3 h): 45 grams (2×) and 30 grams and 55 grams (2×) and 65 grams
pain threshold, force (pain threshold; Immediate): 75 grams (2×) and 65 grams and 60 grams and 70 grams and 80 grams

RVDHp (peptide)
% binding to the CB1 receptor in relation to control [2]: 112 % of control
% binding to the CB1 receptor in relation to control [3]: 105 % of control
% binding to the CB1 receptor in relation to control [4]: 111 % of control
% binding to the CB1 receptor in relation to control [5]: 115 % of control
% binding to the CB1 receptor in relation to control [6]: 103 % of control

RVDHp: N-extended version of hemopressin, RVD-Hp (pepcan 12) (RVDPVNFKLLSH; Hemoglobin subunit alpha; UniProt P69905 93-104, looked up, fragment)
% binding to the CB1 receptor in relation to control (CB1 receptor): 103.39% and 111.53% and 110.87% and 114.76% and 105.22%

SEQ ID No. 7: tetrapeptide of SEQ ID No. 7, embodiment of R1-N-AA1-K-AA2-R2; sequence not printed in the text (NFKL; Synthesized in laboratory)
neuroprotection, survival/death profile after 24 hours (pilocarpine model): even better than those obtained with SEQ ID No. 1
time of occurrence of the first salivation (pilocarpine model): 1.25 min (2×) and 1.183 min and 1.067 min and 2.45 min
time of occurrence of the first signal (pilocarpine model): 10.25 min and 9.317 min and 10.17 min (2×) and 3.83 min
time of occurrence of the first seizure (pilocarpine model): 15.33 (2×) and 18.4 and 30 and 27.3
time of death occurrence (pilocarpine model): 26.63 min and 25.13 min and 13.5 min

VDHp (peptide)
% binding to the CB1 receptor in relation to control [2]: 114 % of control
% binding to the CB1 receptor in relation to control [3]: 113 % of control
% binding to the CB1 receptor in relation to control [4]: 131 % of control
% binding to the CB1 receptor in relation to control [5]: 129 % of control
% binding to the CB1 receptor in relation to control [6]: 116 % of control

VNFKF
pain threshold, force (pain threshold; After 3 h): 85 grams and 40 grams and 35 grams and 50 grams (3×)
pain threshold, force (pain threshold; Immediate): 70 grams (2×) and 65 grams (2×) and 75 grams (2×)

NFKF (also: biotin, position not given here) [SEQ ID No. 1-Biotin]
% binding to the CB1 receptor in relation to control [2]: 85.5 % of control
% binding to the CB1 receptor in relation to control [3]: 97.5 % of control
% binding to the CB1 receptor in relation to control [4]: 83.3 % of control
% binding to the CB1 receptor in relation to control [5]: 84.8 % of control
% binding to the CB1 receptor in relation to control [6]: 89.2 % of control

PVNFKFLSH [hemopressin]
% binding to the CB1 receptor in relation to control [2]: 92.7 % of control
% binding to the CB1 receptor in relation to control [3]: 73.5 % of control
% binding to the CB1 receptor in relation to control [4]: 97 % of control
% binding to the CB1 receptor in relation to control [5]: 90.2 % of control
% binding to the CB1 receptor in relation to control [6]: 91.3 % of control

B1: tetrapeptide SEQ ID No. 1 (peptide)
peptide: NFKF
notes: Synthetic peptide; for the radioligand assays it was a 10 mM stock solution in DMSO
binding result [7]: no binding (tested: 1 and 10 µM)
